We go through six compounds from DBAASP.

Values after ≈ are worked out from the molar mass of the structure shown. Where only a bound is given, the exact number is not on record here.

Among the test systems are Acinetobacter baumannii; Staphylococcus aureus; Bacillus megaterium; Escherichia coli ML-35p; Saccharomyces cerevisiae; Bacillus cereus AS1.126; Escherichia coli AS1.349.
Holding throughout (assay): ≥ marks a high value that may be exact or a test limit, other limits are often not marked, values filed in µg/mL are converted to µM
Assay [1] concerns Bacillus subtilis ATCC 6633.
Assay [2] relates to Klebsiella pneumoniae ATCC 27736.
Assay [3] concerns Pseudomonas aeruginosa ATCC 10662.
Assay [4] concerns Pseudomonas aeruginosa ATCC BAA-427.
Assay [5] relates to Staphylococcus epidermidis ATCC 1435.
The subject of assay [6] is Acinetobacter baumannii ATCC 19606.
The test system of assay [7] is Candida albicans ATCC 90028.
Assay [8] concerns Candida parapsilosis ATCC 22019.
The subject of assay [9] is Enterococcus faecalis ATCC 29212.
Assay [10] concerns Escherichia coli ATCC 25922.
The subject of assay [11] is Escherichia coli ATCC 35218.
The subject of assay [12] is Klebsiella pneumoniae ATCC 13883.
Assay [13] relates to Pseudomonas aeruginosa ATCC 27853.
Assay [14] relates to Salmonella enterica subsp. enterica serovar Enteritidis.
The subject of assay [15] is Staphylococcus aureus ATCC 25923.
Assay [16] relates to Staphylococcus aureus ATCC 43300.
Assay [17] relates to Staphylococcus aureus ATCC BAA-44.
In assay [18] the test system is Staphylococcus aureus ST1065.
Assay [19] has as its system Candida albicans ATCC 10231.
The test system of assay [20] is Candida tropicalis PCM 2681.
Assay [21] concerns Klebsiella pneumoniae ATCC 200603.
The test system of assay [22] is Pseudomonas aeruginosa ATCC 9027.
In assay [23] the test system is Staphylococcus epidermidis ATCC 14490.
In assay [24] the test system is Mycobacterium tuberculosis 173.
Assay [25] concerns Mycobacterium tuberculosis 212.
Assay [26] relates to Mycobacterium tuberculosis 411.
Assay [27] has as its system Mycobacterium tuberculosis CSU87.
Assay [28] deals with Mycobacterium tuberculosis H37Rv.
The subject of assay [29] is Escherichia coli ATCC 2592.
Assay [30] has as its system Micrococcus luteus ATCC 9341.
Assay [31] deals with Staphylococcus aureus 1550.
For assay [32], the system named is Staphylococcus aureus ATCC 6538.
Assay [33] relates to Enterococcus faecalis CGMCC 1.595.
For assay [34], the system named is Enterococcus faecium CGMCC 1.2334.
Assay [35] concerns Lactococcus lactis AS1.1690.
Assay [36] concerns Pseudomonas aeruginosa CGMCC 1.860.
Assay [37] concerns Staphylococcus aureus AS1.72.

For the compound `CC[C@H](C)[C@H](NC(=O)CNC(=O)[C@H](CCCN=C(N)N)NC(=O)[C@H](Cc1ccccc1)NC(=O)[C@@H](NC(=O)[C@H](Cc1cnc[nH]1)NC(=O)[C@H](Cc1cnc[nH]1)NC(=O)[C@H](Cc1ccccc1)NC(=O)[C@@H](N)Cc1ccccc1)[C@@H](C)CC)C(=O)N[C@H](C(=O)N[C@@H](Cc1cnc[nH]1)C(=O)N[C@H](C(=O)NCC(=O)N[C@@H](CCCCN)C(=O)N[C@H](C(=O)N[C@@H](C)C(=O)N[C@@H](Cc1cnc[nH]1)C(=O)N[C@@H](CCCN=C(N)N)C(=O)N[C@@H](CC(C)C)C(=O)N[C@H](C(=O)N[C@H](C(=O)NCC(N)=O)[C@@H](C)O)C(C)C)[C@@H](C)O)C(C)C)C(C)C` [FFHHIFRGIVHVGKTAHRLVTG], the MIC (commonly the lowest concentration found to suppress growth) turned out to be 1.23 µM (≈ 3.1 µg/mL) against Acinetobacter baumannii; 8 µM (≈ 20.2 µg/mL) in [1]; 8 µM (≈ 20.2 µg/mL) in [2]; 9.88 µM (≈ 25 µg/mL) in assay [3]; 12 µM (≈ 30.3 µg/mL) in assay [4]; 1.23 µM (≈ 3.1 µg/mL) with Staphylococcus aureus. The compound further gave an MIC in assay [5] of 0.593 µM (≈ 1.5 µg/mL).

Take `CC[C@H](C)[C@H](NC(=O)CNC(=O)[C@H](C)NC(=O)[C@H](CC(C)C)NC(=O)[C@H](C)NC(=O)[C@H](C)NC(=O)[C@@H]1CCCN1C(=O)[C@H](CC(C)C)NC(=O)[C@@H](N)Cc1ccccc1)C(=O)NCC(=O)NCC(=O)N[C@H](C(=O)N[C@@H](CC(C)C)C(=O)NCC(=O)N[C@@H](CCCCN)C(=O)N[C@@H](CC(C)C)C(=O)N[C@@H](Cc1ccccc1)C(N)=O)[C@@H](C)CC` [FLPAALAGIGGILGKLF]: the MIC is 25 µM (≈ 41.4 µg/mL) in assay [6]; 1.56 µM (≈ 2.59 µg/mL) in the assay with Bacillus megaterium; no less than 100 µM in assay [7]; no less than 200 µM in [8]; 25 µM (≈ 41.4 µg/mL) in assay [9]; 5 µM (≈ 8.29 µg/mL) in assay [10]. Besides, the MIC is no less than 50 µM in assay [11]; 25 µM (≈ 41.4 µg/mL) against Escherichia coli ML-35p; no less than 100 µM in [12]; greater than 200 µM in assay [13]; 25 µM (≈ 41.4 µg/mL) with Saccharomyces cerevisiae; no less than 200 µM in assay [14]. The MIC in assay [15], in [16], in [17] and in assay [18] was 6.25 µM (≈ 10.4 µg/mL) throughout.

On to `CC[C@H](C)[C@H](N)C(=O)N[C@H]1CSSC[C@@H](C(=O)N[C@H](C(=O)O)[C@@H](C)CC)NC(=O)[C@H](Cc2cnc[nH]2)NC(=O)[C@H](Cc2cnc[nH]2)NC1=O` [ICHHCI], for which the MIC in assay [1] is no less than 706 µM; in assay [19] it was greater than 706 µM; in assay [20], no less than 706 µM; in assay [10], greater than 706 µM; in assay [21] it was no less than 706 µM; in [22], greater than 706 µM. Besides, the MIC is greater than 706 µM in assay [15] and no less than 706 µM in assay [23].

For the compound `CC[C@H](C)[C@H](N)C(=O)N[C@@H](CC(C)C)C(=O)N[C@@H](CC(C)C)C(=O)N[C@@H](CCCCN)C(=O)N[C@@H](CCCCN)C(=O)N[C@@H](CC(C)C)C(=O)N[C@@H](CC(C)C)C(=O)N[C@@H](CCCCN)C(=O)N[C@@H](CCCCN)C(=O)N[C@H](C(N)=O)[C@@H](C)CC` [ILLKKLLKKI], the minimal inhibitory concentration (MIC) was no less than 413 µM in assay [24]; no less than 413 µM in assay [25]; no less than 207 µM in [26]; no less than 207 µM in assay [27]; no less than 413 µM in assay [28].

With `CC(C)[C@H](NC(=O)[C@H](CCCCN)NC(=O)[C@H](Cc1ccccc1)NC(=O)[C@@H](NC(=O)[C@@H](NC(=O)[C@H](CCCCN)NC(=O)[C@@H](N)CCCCN)C(C)C)C(C)C)C(=O)N[C@@H](CCCCN)C(=O)N[C@@H](Cc1ccccc1)C(=O)N[C@@H](Cc1cnc[nH]1)C(=O)O` [KKVVFKVKFH], the MIC in assay [29] worked out at 17.5 µM (≈ 22 µg/mL); in assay [30], 6.35 µM (≈ 8 µg/mL); in [22], 7.94 µM (≈ 10 µg/mL); in [31] it was 19.8 µM (≈ 25 µg/mL); in assay [32] it was 9.92 µM (≈ 12.5 µg/mL).

Consider `NC(N)=NCCC[C@H](NC(=O)[C@H](Cc1cnc[nH]1)NC(=O)[C@H](Cc1c[nH]c2ccccc12)NC(=O)[C@H](Cc1ccccc1)NC(=O)[C@H](CCCN=C(N)N)NC(=O)[C@H](CCCN=C(N)N)NC(=O)[C@H](Cc1c[nH]c2ccccc12)NC(=O)[C@H](Cc1cnc[nH]1)NC(=O)[C@H](CCCN=C(N)N)NC(=O)[C@@H](N)Cc1c[nH]c2ccccc12)C(=O)O` [WRHWRRFWHR], for which the MIC stood at 6.25 µM (≈ 10.1 µg/mL) in the assay on Bacillus cereus AS1.126; 3.13 µM (≈ 5.08 µg/mL) in assay [33]; 6.25 µM (≈ 10.1 µg/mL) in assay [34]; 25 µM (≈ 40.6 µg/mL) in the assay with Escherichia coli AS1.349; 6.25 µM (≈ 10.1 µg/mL) in assay [35]; 3.13 µM (≈ 5.08 µg/mL) in [36]. This compound also came in with an MIC in assay [37] of no less than 50 µM.
